Patent publication US20050239718A1, “Use of hederagenin 3-O-alpha-L-rhamnopyranosyl((1-2)-[betha-D-glucopyranosyl(1-4)]-alpha-L-arabinopyranoside or an extract from pulsatillae radix containing the same as a therapeutic agent for solid tumors” (priority 2002, published 2005)

What was measured:
[1] = system: NCI-H23 cells; test: Antitumor activity on nude mice transplanted with NCI-H23 cells; format: in vivo, mouse; conditions: for Inhibition rate of tumor growth (%) on NCI-H23: 16th day after tumor cells transplantation
Experimental: Female nude mice of the age of 5 weeks weighing 16˜25 g obtained from Harlan Co. (USA) were used as experimental animals in this experiment. The mice were used after acclimation for 1 week in an aseptic animal room. The animal room maintained the temperature of 22±2° C., the humidity of 55±5%, and the light and darkness cycle of 12 hours, which was automatically controlled. Solid feed for experimental animals was radiosterilized, and drinking water was sterilized in an autoclave. The animals were supplied with feed and drinking water ad libitum. A human tumor cell line provided by National Cancer Institute (NCI), USA, and preserved in the Korean Research Institute of Bioscience and Biotechnology (KRIBB), Korea, was used. Lung tumor cells, NCI-H23 cells, among the human tumor cells, were transplanted to the nude mice. The tumor cells of 3×10^7 cells/ml were subcutaneously transplanted to the mice at a volume of 0.3 ml/20 g body weight. The samples were intraperitoneally injected to the mice every day for 13 days, that is, from 1 day to 14th day except 8th day after tumor cells transplantation. The size of tumor formed during the injection was measured in each animal, and any change in its body weight was also measured. On 16th day after tumor cells transplantation, the nude mice were sacrificed, and the tumor was separated and weighed. To the positive control group was intraperitoneally injected adiamycin of 0.5 mg/kg body weight on 1st, 5th, 9th, and 14th day.

[2] = system: LLC cells; test: Antitumor activity on BDF1 mice transplanted with LLC cells; format: in vivo, mouse; conditions: for Inhibition rate of tumor growth (%): i.p., WT 280, SPX1 70, SPX2 171, SPX3 30.5, SPX4 8.1, SB365 6.4, adriamycin 0.5 mg/kg
Experimental: The mouse species used in this experiment was BDF1, and healthy male mice with the body weight of […] were used. These animals were supplied with water and foods ad libitum at a place of controlled temperature in the range of 2324° C., and were bred with an antibiotic-free mouse feed. LLC cells were subcutaneously cultured in C57BL/6 mice for 14 days. A LLC cell-containing tissue was taken and thereto was added sterilized cold physiological saline water (5 ml/g tissue) to prepare a cell suspension. The cell suspension of 0.2 ml was subcutaneously transplanted to the groin region of BDF1 mouse.
From 24 hours after transplantation, the above mice were divided into several groupsconsisting of 5 mice. Then, samples, fractions WT and SPX fractions, and SB365, were dissolved in physiological saline, and were injected intraperitoneally at each concentration of 280 mg/kg (WT), 70 mg/kg SPX1), 171 mg/kg (SPX2), 30.5 mg/kg (SPX3), 8.1 mg/kg (SPX4), and 6.4 mg/kg (SB365). To the negative control group was injected only the physiological saline, and to the positive control group was injected adriamycin (0.5 mg/kg). The injection was scheduled from 24 hours after tumor transplantation to administer the samples successively once a day for 7 days, and stopped for one day, and then, was carried out for 6 more consecutive days.
In order to evaluate toxicity of SB365 on mice, experimental mice were weighed twice a week. Antitumor activity was calculated after measuring tumor volume of the control and test groups on 14th and 15th day after sample administration as follows: • Tumor volume (mm^3)=length (mm)×width^2 (mm^2)/2 • Inhibition rate of tumor growth (%)=(C−T)×100/C • (C: average tumor volume in the control group, T: average tumor volume in the test group)

[3] = system: KB cells; conditions: by inhibition of DNA polymerase; cited from earlier work
[4] = 14th day after transplantation of tumor cells
[5] = 15th day after transplantation of tumor cells

| SMILES | Inhibition rate of tumor growth (%) on NCI-H23 ([1]; 0.5 mg/kg i.p. on 1st, 5th, 9th, 14th day) [%] | Inhibition rate of tumor growth (%) [2, 4] [%] | Inhibition rate of tumor growth (%) [2, 5] [%] | Inhibition rate of tumor growth (%) on NCI-H23 ([1]; 1.6 mg/kg i.p.) [%] | Inhibition rate of tumor growth (%) on NCI-H23 ([1]; 3.2 mg/kg i.p.) [%] | Inhibition rate of tumor growth (%) on NCI-H23 ([1]; 6.4 mg/kg i.p.) [%] | Antitumor activity (in words) ([1]; nude mice transplanted with NCI-H23 cells) | Antitumor activity (in words) ([2]; BDF1 mice transplanted with LLC cells) | Inhibition rate of tumor growth ([2]; day not stated) [%] | Cytotoxicity (in words) [3] |
| --- | --- | --- | --- | --- | --- | --- | --- | --- | --- | --- |
| COc1cccc2c1C(=O)c1c(O)c3c(c(O)c1C2=O)C[C@@](O)(C(=O)CO)C[C@@H]3O[C@H]1C[C@H](N)[C@H](O)[C@H](C)O1 [Adriamycin, reference compound] | 61.5 | 60 | 64 |  |  |  |  |  |  |  |
| CC1OC(OC2C(O[C@H]3CC[C@@]4(C)C(CC[C@]5(C)C4CC=C4C6CC(C)(C)CC[C@]6(C(=O)O)CC[C@]45C)[C@]3(C)CO)OCC(OC3OC(CO)C(O)C(O)C3O)C2O)C(O)C(O)C1O (stereo partly drawn) [SB365, hederagenin 3-O-α-L-rhamnopyranosyl(1→2)-[β-D-glucopyranosyl(1→4)]-α-L-arabinopyranoside] |  | 82 | 79 | 40.1 | 52.3 | 82.1 | higher antitumor activity | higher antitumor activity | 81 |  |
| O=C1C=C[C@@H](COC2OC(CO)C(O)C(O)C2O)O1 (stereo partly drawn) [ranunculin, Ranunculin] |  |  |  |  |  |  |  |  |  | has cytotoxicity |
